Like-named read-outs stand apart in the source and are kept apart here.
How the values were obtained:
TbPTR1 = target: T1, TbPTR1 (Trypanosoma brucei brucei, UniProt O76290); assay: biochemical; details: for inhibition at 50 µM: read-out: % Inhibition TbPTR1 at 50 μM; for IC50: dose-response 0.001-100 μM
T1 construct: made in house
T1 sequence (O76290 1-268): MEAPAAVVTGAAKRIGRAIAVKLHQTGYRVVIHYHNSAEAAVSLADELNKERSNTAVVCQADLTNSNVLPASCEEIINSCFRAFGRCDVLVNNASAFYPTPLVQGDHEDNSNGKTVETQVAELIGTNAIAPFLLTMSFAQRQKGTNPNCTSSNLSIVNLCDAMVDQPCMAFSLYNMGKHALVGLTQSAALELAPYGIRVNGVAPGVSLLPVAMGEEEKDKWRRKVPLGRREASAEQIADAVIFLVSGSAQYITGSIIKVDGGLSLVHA

in vitro [1] = assay: in vitro; set-up: cytotoxicity, per cent cell growth of A549 cells; details: human, a549 cells; read-out: % cell growth A549 at 10uM
786-O = assay: cells; set-up: mitochondrial toxicity in 786-O renal carcinoma cells; details: Homo sapiens, 786-0; mitochondrial toxicity
hERG = target: T2, hERG (Homo sapiens, UniProt Q12809); set-up: hERG inhibition liability assay
T2 construct: gene KCNH2

hDHFR = target: T3, hDHFR (Homo sapiens, UniProt P00374); assay: biochemical; set-up: human DHFR enzyme inhibition
T3 construct: gene DHFR
T3 sequence (P00374 1-187): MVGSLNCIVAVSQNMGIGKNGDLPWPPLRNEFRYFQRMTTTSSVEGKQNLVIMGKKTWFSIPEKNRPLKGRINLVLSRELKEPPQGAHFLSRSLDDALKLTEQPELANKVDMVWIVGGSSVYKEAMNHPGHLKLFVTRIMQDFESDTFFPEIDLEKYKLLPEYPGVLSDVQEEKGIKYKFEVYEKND
Description: Figure 10 Summary heat map of the in vitro assays to determine possible liability issues for all synthesized compounds. Assays were performed to assess inhibition of hERG and five CYP isoforms (1A2, 2C9, 2C19, 2D6, and 3A4), growth inhibition of A549 and W1-38 cell lines, and mitochondrial toxicity at 10 μM. The hDHFR inhibition was determined at 100 μM. The data, expressed as percentage values, were organized by adopting a color code for rapid and intuitive visualization. The ideal compound should have all tiles blue, indicating a safe toxicological profile for progressing into the development pipeline. The cells are colored from blue (100% of cell growth at the tested concentration) to red (0% of cell growth at the tested concentration) for A549 and W1-38 and from blue (0% of inhibitory activity at the tested concentration) to red (100% of inhibitory activity at the tested concentration) for CYP isoforms, hERG, hDHFR, and mitochondrial toxicity.

[2] = tested on: T. b. brucei Lister 427 bloodstream forms; assay: In vitro activity against T. brucei (HTS SYBR Green I growth inhibition assay); type: cell-based, Trypanosoma brucei brucei; details: standard deviation within ±10% of the value; for EC50 / inhibition at 50 µM: Trypanosoma brucei; for EC50: read-out: EC50 T. brucei; for inhibition at 50 µM: read-out: % Inhibition T. brucei at 50 μM
in vitro [3] = assay: in vitro; set-up: cytotoxicity, per cent cell growth of WI-38 fibroblasts; details: human, wi-38 cells; read-out: % cell growth W1-38 at 10uM
CYP2D6 = CYP2D6 (Homo sapiens, UniProt P10635); assay: in vitro; set-up: cytochrome P450 isoform inhibition liability assay
CYP1A2 = target: T4, CYP1A2 (Homo sapiens, UniProt P05177); assay: in vitro; set-up: cytochrome P450 isoform inhibition liability assay
T4 sequence (P05177 1-516): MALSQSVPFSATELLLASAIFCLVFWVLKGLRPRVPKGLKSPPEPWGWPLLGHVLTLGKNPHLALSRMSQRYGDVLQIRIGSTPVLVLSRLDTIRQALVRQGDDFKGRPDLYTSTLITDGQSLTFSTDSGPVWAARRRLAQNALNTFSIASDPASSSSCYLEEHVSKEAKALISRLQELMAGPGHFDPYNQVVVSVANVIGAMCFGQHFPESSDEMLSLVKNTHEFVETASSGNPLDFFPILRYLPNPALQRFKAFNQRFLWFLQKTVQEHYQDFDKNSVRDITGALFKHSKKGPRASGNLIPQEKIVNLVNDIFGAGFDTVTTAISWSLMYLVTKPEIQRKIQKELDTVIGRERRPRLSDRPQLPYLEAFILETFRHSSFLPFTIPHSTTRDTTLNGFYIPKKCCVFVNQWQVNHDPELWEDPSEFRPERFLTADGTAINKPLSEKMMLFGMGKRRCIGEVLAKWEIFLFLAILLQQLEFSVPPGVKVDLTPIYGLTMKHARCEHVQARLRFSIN

CYP3A4 = CYP3A4 (Homo sapiens, UniProt P08684); assay: in vitro; set-up: cytochrome P450 isoform inhibition liability assay
CYP2C9 = CYP2C9 (Homo sapiens, UniProt P11712); assay: in vitro; set-up: cytochrome P450 isoform inhibition liability assay
CYP2C19 = CYP2C19 (Homo sapiens, UniProt P33261); assay: in vitro; set-up: cytochrome P450 isoform inhibition liability assay
CYP2C19, sequence (P33261 whole entry, canonical isoform): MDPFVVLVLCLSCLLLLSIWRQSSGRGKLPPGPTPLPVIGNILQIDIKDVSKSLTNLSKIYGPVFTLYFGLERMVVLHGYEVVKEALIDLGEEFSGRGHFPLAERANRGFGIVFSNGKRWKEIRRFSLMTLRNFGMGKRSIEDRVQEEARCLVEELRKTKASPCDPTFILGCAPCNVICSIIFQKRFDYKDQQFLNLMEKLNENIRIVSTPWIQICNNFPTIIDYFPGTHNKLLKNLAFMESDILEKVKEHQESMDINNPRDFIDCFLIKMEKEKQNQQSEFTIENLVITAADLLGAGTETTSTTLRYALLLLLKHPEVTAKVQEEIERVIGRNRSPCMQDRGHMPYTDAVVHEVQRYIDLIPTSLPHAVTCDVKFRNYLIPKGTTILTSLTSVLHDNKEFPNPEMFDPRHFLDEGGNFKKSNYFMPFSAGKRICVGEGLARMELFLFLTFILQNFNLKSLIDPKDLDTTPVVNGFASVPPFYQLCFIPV

T2 sequence (Q12809 whole entry): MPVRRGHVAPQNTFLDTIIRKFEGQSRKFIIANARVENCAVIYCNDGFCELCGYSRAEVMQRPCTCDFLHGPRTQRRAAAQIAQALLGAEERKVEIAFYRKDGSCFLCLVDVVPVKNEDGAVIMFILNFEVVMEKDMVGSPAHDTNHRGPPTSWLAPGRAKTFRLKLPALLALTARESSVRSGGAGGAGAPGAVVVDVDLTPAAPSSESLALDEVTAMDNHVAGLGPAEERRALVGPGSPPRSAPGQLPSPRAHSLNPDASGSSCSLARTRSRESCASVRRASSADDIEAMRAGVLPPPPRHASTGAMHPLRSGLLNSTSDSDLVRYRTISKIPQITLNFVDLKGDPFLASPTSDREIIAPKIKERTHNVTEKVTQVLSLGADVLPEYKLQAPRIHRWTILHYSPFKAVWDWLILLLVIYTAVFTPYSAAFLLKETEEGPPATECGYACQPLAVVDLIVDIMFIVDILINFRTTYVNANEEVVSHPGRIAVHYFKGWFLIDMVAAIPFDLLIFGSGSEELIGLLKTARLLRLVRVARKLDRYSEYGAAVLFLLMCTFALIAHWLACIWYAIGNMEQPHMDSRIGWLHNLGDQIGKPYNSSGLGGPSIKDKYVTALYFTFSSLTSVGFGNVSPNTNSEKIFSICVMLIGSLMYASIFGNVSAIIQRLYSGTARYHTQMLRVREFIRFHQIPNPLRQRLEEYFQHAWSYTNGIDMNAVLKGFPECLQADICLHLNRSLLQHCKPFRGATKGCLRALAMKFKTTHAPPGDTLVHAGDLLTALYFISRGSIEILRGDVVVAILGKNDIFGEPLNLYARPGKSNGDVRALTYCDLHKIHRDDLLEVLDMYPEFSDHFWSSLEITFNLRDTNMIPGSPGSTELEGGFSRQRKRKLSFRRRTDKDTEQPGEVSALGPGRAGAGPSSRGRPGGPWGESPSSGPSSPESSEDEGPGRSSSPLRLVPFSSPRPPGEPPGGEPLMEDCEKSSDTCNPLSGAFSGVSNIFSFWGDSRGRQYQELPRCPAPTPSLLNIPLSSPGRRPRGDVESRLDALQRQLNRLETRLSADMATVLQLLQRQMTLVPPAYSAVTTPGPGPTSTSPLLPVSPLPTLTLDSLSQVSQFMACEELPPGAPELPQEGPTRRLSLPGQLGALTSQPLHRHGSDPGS
CYP2C9, sequence (P11712 whole entry, canonical isoform): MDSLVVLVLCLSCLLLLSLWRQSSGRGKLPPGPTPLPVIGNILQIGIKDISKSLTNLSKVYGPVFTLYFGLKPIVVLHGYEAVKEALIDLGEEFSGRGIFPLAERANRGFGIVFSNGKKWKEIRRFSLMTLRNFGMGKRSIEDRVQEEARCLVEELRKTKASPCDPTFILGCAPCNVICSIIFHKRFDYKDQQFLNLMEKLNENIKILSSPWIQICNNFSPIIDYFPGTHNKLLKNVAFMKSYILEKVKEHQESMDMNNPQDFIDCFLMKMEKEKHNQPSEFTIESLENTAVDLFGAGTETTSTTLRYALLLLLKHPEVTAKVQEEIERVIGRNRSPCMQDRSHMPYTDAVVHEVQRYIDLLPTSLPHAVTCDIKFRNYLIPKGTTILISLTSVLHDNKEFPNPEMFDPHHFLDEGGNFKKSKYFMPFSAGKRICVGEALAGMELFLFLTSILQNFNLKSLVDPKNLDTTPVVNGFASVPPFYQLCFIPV
CYP3A4, sequence (P08684 whole entry, canonical isoform): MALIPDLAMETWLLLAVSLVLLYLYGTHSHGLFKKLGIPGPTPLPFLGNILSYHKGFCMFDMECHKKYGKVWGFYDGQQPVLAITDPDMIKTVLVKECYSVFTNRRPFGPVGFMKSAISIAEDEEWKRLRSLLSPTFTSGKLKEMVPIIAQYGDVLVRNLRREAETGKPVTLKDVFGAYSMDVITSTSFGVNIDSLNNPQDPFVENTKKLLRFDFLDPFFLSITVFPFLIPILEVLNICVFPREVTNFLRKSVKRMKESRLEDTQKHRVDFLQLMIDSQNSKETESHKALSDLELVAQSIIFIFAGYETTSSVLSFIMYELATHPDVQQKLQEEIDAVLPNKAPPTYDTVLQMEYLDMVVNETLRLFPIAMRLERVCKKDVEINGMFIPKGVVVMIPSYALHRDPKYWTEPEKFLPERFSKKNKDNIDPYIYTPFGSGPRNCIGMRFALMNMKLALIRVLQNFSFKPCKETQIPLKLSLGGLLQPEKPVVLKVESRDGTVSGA
CYP2D6, sequence (P10635 whole entry, canonical isoform): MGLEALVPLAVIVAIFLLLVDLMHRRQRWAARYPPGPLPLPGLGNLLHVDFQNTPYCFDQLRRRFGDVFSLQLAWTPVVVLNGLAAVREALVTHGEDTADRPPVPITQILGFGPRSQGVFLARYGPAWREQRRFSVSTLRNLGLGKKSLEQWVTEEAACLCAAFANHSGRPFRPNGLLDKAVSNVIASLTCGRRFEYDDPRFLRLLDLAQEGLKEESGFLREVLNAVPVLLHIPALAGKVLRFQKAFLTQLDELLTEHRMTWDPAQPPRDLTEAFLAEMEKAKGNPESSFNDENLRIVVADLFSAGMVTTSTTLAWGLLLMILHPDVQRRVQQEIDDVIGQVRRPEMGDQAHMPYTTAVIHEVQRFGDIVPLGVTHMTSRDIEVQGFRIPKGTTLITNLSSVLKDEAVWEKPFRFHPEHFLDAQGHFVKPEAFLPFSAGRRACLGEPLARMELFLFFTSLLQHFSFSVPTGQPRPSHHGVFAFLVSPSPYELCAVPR

Row | Structure (SMILES) | % Inhibition TbPTR1 at 50 μM (TbPTR1; 50 μM compound) | inhibition at 50 µM (TbPTR1; 50 μM compound) [%] | IC50 (TbPTR1) [µM] | viability at 10 µM (in vitro [1]) [%] | inhibition at 10 µM (786-O) [%] | inhibition at 10 µM (hERG) [%] | inhibition at 100 µM (hDHFR) [%] | % Inhibition T. brucei at 50 μM [2] [%] | EC50 [2] [µM] | viability at 10 µM (in vitro [3]) [%] | inhibition at 10 µM (CYP2D6) [%] | inhibition at 10 µM (CYP1A2) [%] | inhibition at 10 µM (CYP3A4) [%] | inhibition at 10 µM (CYP2C9) [%] | inhibition at 10 µM (CYP2C19) [%] | inhibition at 50 µM [2] [%] | inhibition at 10 µM (hDHFR) [%] | inhibition at 25 µM (hDHFR; 25 uM) [%]
1 | Nc1nnc(-c2cc(O)c(O)c(O)c2)s1 [1f, 3′,4′,5′-trihydroxy-phenyl-1,3,4-thiadiazole] | did not show inhibition | 44.9 ± 0.9 | 41 | 118 ± 3.1 | -9.6 ± 7.9 | 3.3 ± 2.2 | 31 | 100.0 | 1 | 111 ± 12.9 | -6 ± 7.3 | 71.4 ± 6.9 | 67.7 ± 3.1 | 38.2 ± 5.4 | 67.4 ± 7.3 | – | – | –
2 | Nc1nnc(-c2ccc(O)c(O)c2)s1 [1d, 3′,4′-dihydroxy-phenyl-1,3,4-thiadiazole] | – | 16.7 ± 1 | – | 145.9 ± 0.7 | -0.1 ± 6.2 | 19.2 ± 6.4 | 62 | – | 18.3 | 99.9 ± 17.5 | -28.4 ± 10.1 | -16.8 ± 6.9 | -8.1 ± 3.2 | -19.5 ± 5.6 | -32.3 ± 7.8 | 78.6 | – | –
3 | Nc1cccc(-c2ccc(-c3nnc(N)s3)cc2)c1 [2b] | – | 16.2 ± 0.5 | – | 137 ± 11.1 | -1 ± 2.2 | 9.1 ± 4.4 | – | – | – | 73.4 ± 2.5 | -16.1 ± 6.6 | 44.6 ± 1.5 | 32 ± 3.7 | 1.9 ± 1 | -3.9 ± 13.3 | 33.4 | 17 | –
4 | COc1cccc(CNc2nnc(N)s2)c1 [4i] | – | 31 ± 1.3 | 56 | 107 ± 5.8 | -15.3 ± 24.3 | 108 ± 9.6 | 28 | 95.6 | 16 | 129 ± 14.1 | 105.2 ± 0.1 | 15.9 ± 1.1 | 87.7 ± 0.4 | 33.5 ± 1.7 | 45.9 ± 0.8 | – | – | –
5 | COc1ccc(-c2nnc(N)s2)cc1OC [1c] | – | 9.4 ± 0.3 | – | 105 ± 5.3 | -7.3 ± 5.2 | 13.6 ± 4 | 42 | – | – | 110 ± 33.5 | -45.9 ± 3.1 | 14.1 ± 3.4 | -7.1 ± 6 | -25.9 ± 1.5 | -26.1 ± 22.5 | 64.3 | – | –
6 | COC(=O)C(Cc1ccccc1)Nc1nnc(N)s1 (stereo not shown) [4p, Methyl 2G((5GaminoG1,3,4GthiadiazolG2Gyl)amino)G3Gphenylpropanoate] | – | 3.9 ± 0.3 | – | 126 ± 3.5 | 1.72 ± 5.2 | 28.7 ± 10.5 | 9 | – | – | 114 ± 12.7 | 47.4 ± 3.3 | -1.5 ± 4.3 | -12.5 ± 6.8 | -10.9 ± 3 | -27.4 ± 13.1 | 0.4 | – | –
7 | Nc1nnc(-c2cccc(-c3ccccc3)c2)s1 [2c] | – | 25.2 ± 1.4 | – | 115 ± 5.3 | 0 | 83.7 ± 2.5 | – | – | – | 87.2 ± 13.8 | 48.2 ± 2.3 | 101 ± 1.4 | 59.5 ± 3.7 | 24.1 ± 0.4 | 65.1 ± 6.8 | 14.4 | – | 23
8 | Nc1nnc(-c2cccc(-c3ccc4c(c3)OCO4)c2)s1 [2g] | – | 4 ± 0.4 | – | 116 ± 8.3 | -2.6 ± 13.7 | 27.9 ± 5.2 | – | – | – | 130 ± 14.1 | 27 ± 2.36 | 97.8 ± 1 | 28.2 ± 5 | 28.7 ± 2.2 | 34.3 ± 3.7 | 10.4 | 12 | –
9 | Nc1nnc(N)s1 [4a] | – | 14.2 ± 0.8 | – | 113 ± 4.4 | 1.7 ± 6.6 | 4.7 ± 3.6 | 36 | – | – | 81.3 ± 13.5 | -15.9 ± 8.6 | 40.5 ± 3 | 53.4 ± 4.4 | 46 ± 1.7 | 62.3 ± 8.3 | < 0 | – | –
10 | Nc1nnc(/C=C/c2ccccc2)s1 [3h] | – | 34.3 ± 1.2 | – | 138 ± 5.6 | -1.3 ± 6.6 | 58.7 ± 4.9 | – | – | 58 | 111 ± 42 | -22.1 ± 8 | 25.2 ± 1.1 | 45.9 ± 5.5 | 4.1 ± 5.9 | 7.2 ± 9.8 | 82.7 | 15 | –
11 | Nc1nnc(-c2cccc(Br)c2)s1 [1i] | – | 34.2 ± 1.5 | – | 135 ± 4.6 | -3.6 ± 9.1 | 14.6 ± 4.2 | 19 | – | – | 111 ± 12.3 | -45.1 ± 6.2 | 47 ± 2 | -14.1 ± 6 | -47.7 ± 2 | -30.9 ± 4.3 | 1.8 | – | –
12 | Nc1nnc(-c2ccc(Cl)c(Cl)c2)s1 [1l] | – | 15.6 ± 0.7 | – | 107 ± 1.2 | 7.6 ± 8.3 | 91.7 ± 8.4 | – | – | – | 77.8 ± 22.1 | 52.7 ± 2.1 | 80.6 ± 1.6 | 35.7 ± 7.9 | 46.7 ± 1.5 | 64.9 ± 1.7 | 30 | 18 | –

— article PMC5623949, “Exploiting the 2-Amino-1,3,4-thiadiazole Scaffold To Inhibit Trypanosoma brucei Pteridine Reductase in Support of Early-Stage Drug Discovery” (ACS Omega, 2017)
